The record followed here is patent KR20180060184A, “Ccsp-2와 특이적으로 결합하는 펩타이드 및 이의 용도” (재단법인 아산사회복지재단, priority 2016, dated 2018).

The Kd is the concentration at which binding is half-saturated.

Test [1] has as its target T1, CCSP-2 단백질 (Homo sapiens, UniProt Q5GFL6).
T1 sequence (Q5GFL6 24-755): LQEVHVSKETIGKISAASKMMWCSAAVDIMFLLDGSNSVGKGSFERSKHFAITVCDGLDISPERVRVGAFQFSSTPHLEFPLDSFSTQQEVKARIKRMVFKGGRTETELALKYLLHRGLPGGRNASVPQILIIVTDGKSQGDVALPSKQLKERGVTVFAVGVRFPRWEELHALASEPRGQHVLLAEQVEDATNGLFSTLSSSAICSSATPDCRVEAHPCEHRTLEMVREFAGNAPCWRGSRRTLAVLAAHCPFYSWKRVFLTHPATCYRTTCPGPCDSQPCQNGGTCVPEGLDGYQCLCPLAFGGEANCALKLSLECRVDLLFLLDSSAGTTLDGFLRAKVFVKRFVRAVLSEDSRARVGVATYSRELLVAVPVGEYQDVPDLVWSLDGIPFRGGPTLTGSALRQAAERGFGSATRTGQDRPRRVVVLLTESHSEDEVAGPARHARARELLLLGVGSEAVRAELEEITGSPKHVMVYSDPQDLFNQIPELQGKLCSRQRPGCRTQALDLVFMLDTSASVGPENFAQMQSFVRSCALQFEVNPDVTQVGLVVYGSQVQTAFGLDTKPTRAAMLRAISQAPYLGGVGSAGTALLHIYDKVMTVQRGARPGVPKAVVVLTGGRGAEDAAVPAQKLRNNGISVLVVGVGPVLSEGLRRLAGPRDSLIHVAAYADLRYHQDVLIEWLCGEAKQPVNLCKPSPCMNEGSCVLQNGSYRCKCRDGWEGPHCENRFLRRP
The test can be described thus: Fluorescence correlation spectroscopy (FCS), dissociation constant with CCSP-2 protein. The format is binding. The conditions noted are these: (peptide)-(GGGSK)-FITC-NH2 conjugate; CCSP-2 0-300 uM; Fig. 5; read-out: 해리상수 (Dissociation constant, Kd).

The target of test [2] is T2, CCSP-2 (Homo sapiens, UniProt Q5GFL6).
T2 construct: His tag; made in house; host or cells: CCSP-2-overexpressing HeLa cell line (provided by Case Western Reserve University); the secreted protein was captured from the conditioned medium on Ni-NTA agarose
T2 sequence (Q5GFL6 24-755): T1 sequence (Q5GFL6 24-755)
The test can be described thus: Phage display biopanning on purified CCSP-2 and sequencing of selected clones. The format is binding. The conditions noted are these: after 4 rounds of panning on CCSP-2.

Residues, ends and D or L forms follow the SMILES beside them.

Regarding `N=C(N)NCCC[C@H](NC(=O)[C@H](Cc1ccccc1)NC(=O)[C@H](CCCCN)NC(=O)[C@H](CO)NC(=O)[C@H](Cc1ccccc1)NC(=O)[C@@H](N)CCC(=O)O)C(=O)N[C@@H](CO)C(=O)O` [MSJ2, EFSKFRS] (H-EFSKFRS-OH), the Kd in test [1] came to 55 µM.
Still for that read-out and setting: to `CSCC[C@H](N)C(=O)N[C@@H](CO)C(=O)N[C@H](C(=O)NCC(=O)N[C@@H](CC(C)C)C(=O)N[C@@H](CO)C(=O)N[C@@H](CO)C(=O)O)[C@@H](C)O` [MSJ3, MSTGLSS] (H-MSTGLSS-OH) belongs 25 µM; to `CC(C)C[C@H](NC(=O)[C@H](CCCCN)NC(=O)[C@@H](N)CC(C)C)C(=O)NCC(=O)N[C@@H](CCC(=O)O)C(=O)N[C@@H](CCCCN)C(=O)N[C@@H](Cc1c[nH]c2ccccc12)C(=O)O` [MSJ6, LKLGEKW] (H-LKLGEKW-OH), 62 µM.
For `N=C(N)NCCC[C@H](NC(=O)[C@H](CC(N)=O)NC(=O)[C@H](Cc1ccccc1)NC(=O)[C@H](CO)NC(=O)[C@H](CO)NC(=O)[C@H](Cc1ccc(O)cc1)NC(=O)CN)C(=O)O` [MSJ11, GYSSFNR] (H-GYSSFNR-OH), the Kd in test [1] came out at 61 µM.
For the molecule NTGSPYE [MSJ1], in test [2], the “빈도 (frequency among the 56 sequences, percent)” value came to 16.1%.
Same read-out and setting: for WWNPLRP [MSJ10] the value was 12.5%.
